According to US20110086818A1, “METHODS, COMPOSITIONS, AND KITS FOR TREATING PAIN AND PRURITUS” (priority 2008, published 2011):

Experiments:
[1] = tested on: rats; assay: sciatic nerve injection, motor function score and placing reflex
Procedure: (§1) Motor effects were scored according to a scale of 0 (no effect; normal gait and limb placement), 1 (limb movement but with abnormal limb placement and movement) or 2 (complete loss of limb movement). […] For co-application of QX-314 and capsaicin into the para-sciatic nerve region, we injected QX-314 first, followed 10 minutes later by capsaicin, with the idea that QX-314 would be present extracellularly and ready to enter TRPV1 channels as soon as they were activated.
(§2) For sciatic nerve injections, animals were first habituated to handling for 10 days. Lidocaine (0.2% or 2%, 100 μL); QX-314 (0.2%, 100 μL) alone; capsaicin (50 μg in 100 μL) alone, or QX-314 followed by capsaicin (10 minutes interval) were injected into the area of sciatic nerve below the hip joint. Mechanical and thermal thresholds were determined using von Frey filaments and radiant heat. […] Walking, climbing, walking on the rod and placing reflex were examined. […] All experiments were done with the experimenter blinded.

[2] = tested on: adult rats; assay: intraplantar injection, thermal (radiant heat) response latency; format: in vivo, rat; conditions: QX-314 at 30 min, capsaicin at 15 and 30 min, combination 2 hours after injection, heat applied for 25 seconds
Procedure: (§3) FIG. 3. Intraplantar injection of capsaicin (10 μg/10 μL) together with QX-314 (2%, 10 μL) leads to a prolonged local anesthesia to mechanical (von Frey filaments) and thermal noxious stimuli. […] (*=p<0.05, n=6 for each group). […] Arrow indicates cutoff, and numbers of animals not responding to strongest stimulus is indicated for time points with largest effects. (*=p<0.05, n=6 for each group).
Similar effects were seen examining sensitivity to a standardized noxious radiant heat stimulus. […] This effect remained for 4 hours after the injection (FIG. 3B).
(§4) For intraplantar injections, rats were first habituated to handling and tests performed with the experimenter blind to the treatment. Intraplantar injections of vehicle (20% ethanol, 5% Tween 20 in saline, 10 μL) capsaicin (1 μg/μL), QX-314 (2%) or mixture of capsaicin and QX-314 into the left hindpaw were made and mechanical and thermal sensitivities determined using von Frey hairs and radiant heat respectively.

[3] = tested on: voltage-dependent sodium channels; assay: whole-cell voltage clamp recordings of sodium current in small (capsaicin-sensitive) DRG neurons; format: cell-based, rat; conditions: for inhibition (decrease) of sodium current: small capsaicin-sensitive DRG neurons, 5 mM QX-314 (5-minute application), 1 μM capsaicin (1-10 minutes), alone or together, steps from −70 mV, n=25
Procedure: We recorded current through voltage-dependent sodium channels using whole-cell voltage clamp recordings from adult rat DRG neurons. To select for nociceptors, we recorded from small (24±5 μm; n=25) neurons and tested the neurons for the expression of TRPV1 receptors by a short (1-sec) application of 1 μM capsaicin. In 25/25 of small neurons tested, capsaicin produced a prolonged (10±3 sec) inward current (FIG. 1A, upper panel), consistent with the neurons being nociceptors. Sodium currents were elicited by depolarizing steps from a holding potential of −70 mV.
(§5) Dorsal root ganglia from 6-8 week old Sprague-Dawley rats were removed and placed into Dulbecco's Minimum Essential Medium containing 1% penicillin-streptomycin (Sigma), then treated for 90 minutes with 5 mg/ml collagenase, 1 mg/ml Dispase II (Roche, Indianapolis, Ind.) and for 7 minutes with 0.25% trypsin, followed by addition of 2.5% trypsin inhibitor. Cells were triturated in the presence of DNAase I […] (50 U), centrifuged through 15% BSA (Sigma), resuspended in 1 ml Neurobasal medium (Sigma), 10 μM AraC, NGF (50 ng/ml) and GDNF (2 ng/ml) and plated onto poly-lysine (500 μg/ml) and laminin ([…]) coated 35 mm tissue culture dishes (Becton Dickinson) at 8000-9000 per well. Cultures were incubated at 37° C., 5% carbon dioxide. Recordings were made within 48 hours after plating. Average size of small neurons chosen as likely nociceptors was 23±6 μm (n=50) and that of large neurons was 48±8 μM (n=10).
Whole-cell voltage-clamp or current-clamp recordings were made using an Axopatch 200 A amplifier (Axon Instruments, Union City, Calif.) and patch pipettes with resistances of 1-2 MΩ. For voltage-clamp recordings pipette capacitance was reduced by wrapping the shank by Parafilm or coating the shank with Sylgard (Dow Corning, Midland, Mich.). Cell capacitance was compensated for using the amplifier circuitry, and linear leakage currents subtracted using a P/4 procedure. Series resistance (usually 3-7 MO and always less than 10 MΩ) was compensated by ˜80%. Voltage clamp recordings used solutions designed to isolate sodium currents by blocking potassium and calcium currents and with reduced external sodium to improve voltage clamp. Pipette solution was 110 mM CsCl, 1 mM CaCl2, 2 mM MgCl2, 11 mM EGTA, and 10 mM HEPES, pH adjusted to 7.4 with ˜25 mM CsOH. External solution was 60 mM NaCl, 60 mM choline chloride, 4 mM KCl, 2 mM CaCl2, 1 mM MgCl2, 0.1 mM CdCl2, 15 mM tetraethylammonium chloride, 5 mM 4-aminopyridine, 10 mM glucose, and 10 mM HEPES, pH adjusted to 7.4 with NaOH. No correction was made for the small liquid junction potential (−2.2 mV).
Command protocols were generated and data digitized using a Digidata 1200 A/D interface with pCLAMP 8.2 software (Axon Instruments, Union City, Calif.). […]

[4] = tested on: adult rats; assay: intraplantar injection, mechanical threshold for paw withdrawal (von Frey hairs); format: in vivo, rat; conditions: QX-314 10 μL of 2%, capsaicin 10 μg/10 μL, capsaicin effect at 15 and 30 minutes
Procedure: as §3
We next examined if the combination of capsaicin and QX-314 can reduce pain behavior in vivo. […] In three animals the paw was insensitive to even the highest value von Frey filament (57 g). The elevated mechanical threshold lasted for about three hours and then gradually returned back to basal levels by four hours (FIG. 3A).
as §4

[5] = tested on: voltage-dependent sodium channels; assay: whole-cell voltage clamp recordings of sodium current in large (capsaicin-insensitive) DRG neurons; format: cell-based, rat; conditions: large DRG neurons (>40 μm); 10-minute application; n=10
Text: To test whether the ability of co-applied capsaicin and QX-314 to inhibit sodium current is selective for cells that express TRPV1 receptors, we also recorded from large DRG neurons (soma diameter >40 μm) (FIG. 1A, right). […] As for small diameter neurons, QX-314 applied alone had little or no effect on sodium current (current increased by 8±4% after a 10-minute application, n=10). Unlike small diameter neurons, capsaicin had no effect on sodium current in large diameter neurons (average increase by 3±2% after a 10-minute application, n=10).
as §5, with “Average size of small neurons chosen as likely nociceptors was 23±6 μm (n=50) and that of large neurons was 48±8 μM (n=10).” left out

[6] = tested on: rats; assay: sciatic nerve injection, mechanical threshold (von Frey filaments); format: in vivo, rat; conditions: QX-314 0.2%, 100 μL, capsaicin 0.5 μg/μL, for 30 min after injection
Procedure: as §1, §2

[7] = tested on: small DRG neurons; assay: current clamp recording of action potentials in small nociceptive-like DRG neurons; format: cell-based, rat; conditions: QX-314 5 mM, capsaicin 1 μM
[8] = tested on: rats; assay: sciatic nerve injection, thermal (radiant heat) response latency; format: in vivo, rat; conditions: QX-314 0.2%, 100 μL, capsaicin 0.5 μg/μL, for 30 min after injection
Procedure: as §1, §2

[9] = tested on: adult rats; assay: intraplantar injection, spontaneous flinching; format: in vivo, rat; conditions: first 5 minutes after intraplantar injection; capsaicin 10 μg/10 μL, QX-314 2%
[10] = biological target: T1, TRPV1 receptors (Rattus norvegicus, UniProt O35433); assay: capsaicin-evoked inward current in DRG neurons (test for expression of TRPV1 receptors); format: cell-based
T1 construct: Dorsal root ganglia from 6-8 week old Sprague-Dawley rats were removed; endogenous in cells; host or cells: primary cultured dorsal root ganglion neurons from 6-8 week old Sprague-Dawley rats
T1 sequence (O35433 whole entry): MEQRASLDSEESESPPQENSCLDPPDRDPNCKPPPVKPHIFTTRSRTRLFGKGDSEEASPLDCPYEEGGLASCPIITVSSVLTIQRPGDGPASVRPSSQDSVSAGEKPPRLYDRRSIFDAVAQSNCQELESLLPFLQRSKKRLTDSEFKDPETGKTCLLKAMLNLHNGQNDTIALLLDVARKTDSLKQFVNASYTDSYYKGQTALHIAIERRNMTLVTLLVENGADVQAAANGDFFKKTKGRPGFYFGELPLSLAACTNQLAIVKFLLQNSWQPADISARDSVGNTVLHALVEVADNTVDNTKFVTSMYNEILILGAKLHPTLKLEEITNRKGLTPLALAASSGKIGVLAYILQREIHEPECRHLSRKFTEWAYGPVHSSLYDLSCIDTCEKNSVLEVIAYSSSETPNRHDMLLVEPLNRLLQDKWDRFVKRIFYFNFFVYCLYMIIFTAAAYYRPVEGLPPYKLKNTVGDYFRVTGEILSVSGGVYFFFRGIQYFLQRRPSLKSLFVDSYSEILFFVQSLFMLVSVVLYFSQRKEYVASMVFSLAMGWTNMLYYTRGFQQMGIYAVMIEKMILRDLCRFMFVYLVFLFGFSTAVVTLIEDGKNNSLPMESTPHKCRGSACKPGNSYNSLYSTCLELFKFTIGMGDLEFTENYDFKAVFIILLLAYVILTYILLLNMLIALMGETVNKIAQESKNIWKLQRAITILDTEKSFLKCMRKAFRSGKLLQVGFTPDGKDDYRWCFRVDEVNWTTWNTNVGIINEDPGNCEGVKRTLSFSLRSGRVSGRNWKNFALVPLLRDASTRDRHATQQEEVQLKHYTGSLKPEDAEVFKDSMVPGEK
Procedure: QX-314 (5 mM), capsaicin (1 μM or 500 nM), or their combination was applied using custom-designed multibarrel fast drug delivery system placed about 200-250 μm from the neuron. Solution exchange was complete in less than a second.

[11] = hindpaw injection, acute pain-related response (flinches) and analgesia (FIG. 8); format: in vivo; conditions: injection into the hindpaw, flinches (FIG. 8)
[12] = small neurons, 1-sec application of 1 μM capsaicin

duration of complete loss of tactile stimulus-evoked placing reflex ([1]; rat, in vivo) | effect on motor function ([1]; rat, in vivo) | time to full recovery of sensory and motor deficits ([1]; rat, in vivo) [min] | SMILES | effect on thermal response latency (noxious radiant heat) [2] | effect of external application on sodium channels ([3]; external QX-314 alone) | inhibition (decrease) of sodium current [3] [%] | effect on mechanical threshold for withdrawal response [4] | increase of sodium current [5] [%] | effect on mechanical threshold [6] | effect on action potential generation / amplitude [7] | effect on thermal response latency [8] | inhibition of sodium current ([3]; small dorsal root ganglion neurons, eugenol alone (FIG. 5)) | flinches in 5 min [9] [flinches] | mean motor score ([1]; scale 0-2, sciatic injection, lidocaine 2% at 30 minutes, capsaicin 0.5 μg/μL, 100 μL, QX-314 0.2%, 100 μL followed 10 minutes later by capsaicin) | inward current in large DRG neurons ([10]; large DRG neurons, soma diameter >40 μm, 10 of 10) | duration of prolonged inward current [10, 12] [s] | small neurons tested in which an inward current was produced [10, 12] | duration of acute pain-related response following injection [11]
at least 30 minutes | complete paralysis of the lower limb | ≤ 45 | CCN(CC)CC(=O)Nc1c(C)cccc1C [lidocaine] | – | – | – | – | – | – | – | – | – | – | – | – | – | – | –
– | no effect on motor function | – | CC[N+](CC)(CC)CC(=O)Nc1c(C)cccc1C [QX-314] | transiently reduced the thermal response latency | no effect | 3±0.5 | no significant effect | 8±4 | no significant effect | had no effect | no significant effect | – | – | – | – | – | – | –
– | – | – | C=CCc1ccc(O)c(OC)c1 [eugenol, 2-methoxy-4-(2-propenyl)phenol] | – | – | – | – | – | – | – | – | 10-20% | – | – | – | – | – | –
– | – | – | COc1cc(CNC(=O)CCCC/C=C/C(C)C)ccc1O [capsaicin] | reduced | – | 31±9 | significantly reduced the mechanical threshold | 3±2 | reduced | reduced the action potential amplitude | reduced | – | 40±6 | 0.7±0.2 | did not elicit an inward current | 10 ± 3 | 25/25 | approximately 15 min
